Assays:
[1] = test system: Echinochloa crus-galli var. oryzicola; assay: Test Example 1: pot test on selectivity, inhibition of Echinochloa crus-galli var. oryzicola; format: in vivo; conditions: dry weight 30 days after treatment
Description: (§1) In a Wagner pot of 1/500 are, paddy field soil (alluvial soil) was placed and 50 seeds of Echinochloa crus-galli var. oryzicola and 30 seeds of paddy rice were seeded in the surface layer of said soil and the submerging depth was kept at about 1 cm. When Echinochloa crus-galli var. oryzicola reached at the one leaf stage and 5-leaf stage, the emulsion of a predetermined concentration, prepared according to Example 4 was added dropwise. After 30 days from the treatment with the chemical, dry weights of Echinochloa crus-galli var. oryzicola and paddy rice were measured and the inhibition rate was calculated with reference to untreated area. [formula]
(§2) The comparative chemicals used, i.e. DCMU and Linuron, were those commercially available, and the comparative chemicals A and B used were prepared according to the process for formulating the compound of this invention.

[2] = test system: paddy rice; assay: Test Example 1: pot test on selectivity, inhibition of paddy rice; format: in vivo; conditions: dry weight 30 days after treatment
Description: In a Wagner pot of 1/500 are, paddy field soil (alluvial soil) was placed and 50 seeds of Echinochloa crus-galli var. oryzicola and 30 seeds of paddy rice were seeded in the surface layer of said soil and the submerging depth was kept at about 1 cm. […] After 30 days from the treatment with the chemical, dry weights of Echinochloa crus-galli var. oryzicola and paddy rice were measured and the inhibition rate was calculated with reference to untreated area. [formula]
as §2

[3] = test system: Echinochloa crus-galli var. oryzicola; assay: Test Example 2: concrete pot test on killing effect, Echinochloa crus-galli var. oryzicola; format: in vivo; conditions: granule, 30 days after treatment
Description: as §1
(§3) In a concrete pot of 1/400 are (50 cm×50 cm), paddy field soil (alluvial soil) was placed and 200 seeds of Echinochloa crus-galli var. oryzicola were seeded in 10 surface layer of said soil and the soil was submerged at about 3 cm depth. Before emergence of Echinochloa crus-galli var. oryzicola, paddy rice at 2.5-leaf stage (Asahi species) was transplanted at the rate of 8 stubs per pot, planting 3 seedlings per stub. At the one-leaf stage (3.5 leaves stage of paddy rice) and 5 leaves stage (7 leaves stage of paddy rice) of Echinochloa crus-galli var. oryzicola, the granule prepared according to Example 1 was applied. […] 30 Days after the treatment with the chemical, examination was made in the similar manner as Test Example 1 to obtain results as shown in Table 2.
(§4) In the table, as the comparative chemicals CPN, Benthiocarb, Molinate and Simetryne, those commercially available were used and the comparative chemicals A and B (as mentioned before) used were prepared according to the process for preparing the compound of this invention.

[4] = test system: paddy rice; assay: whole plant or invertebrate; format: in vivo, paddy rice (Asahi species); conditions: granule, 30 days; for Inhibition (%) by treatment at 1-leaf stage of E. crus-galli var. oryzicola, paddy rice: rice at 3.5 leaves stage; for Inhibition (%) by treatment at 5-leaf stage of E. crus-galli var. oryzicola, paddy rice: rice at 7 leaves stage
Description: as §1, §3, §4

CC(Cl)=CCOc1ccc(NC(=O)N(C)C)cc1 [Comparative chemical A]
Inhibition (%) by treatment at 1-leaf stage, E. crus-galli var. oryzicola ([1]; 75 g/10 are): 87% | Inhibition (%) by treatment at 5-leaf stage, E. crus-galli var. oryzicola ([1]; 75 g/10 are): 37% | Inhibition (%) by treatment at 1-leaf stage, E. crus-galli var. oryzicola ([1]; 150 g/10 are): 100% | Inhibition (%) by treatment at 5-leaf stage, E. crus-galli var. oryzicola ([1]; 150 g/10 are): 67% | Inhibition (%) by treatment at 1-leaf stage, E. crus-galli var. oryzicola ([1]; 300 g/10 are): 100% | Inhibition (%) by treatment at 5-leaf stage, E. crus-galli var. oryzicola ([1]; 300 g/10 are): 82% | Inhibition (%) by treatment at 1-leaf stage, E. crus-galli var. oryzicola ([1]; 600 g/10 are): 100% | Inhibition (%) by treatment at 5-leaf stage, E. crus-galli var. oryzicola ([1]; 600 g/10 are): 95% | Inhibition (%) by treatment at 1-leaf stage, E. crus-galli var. oryzicola ([1]; 900 g/10 are): 100% | Inhibition (%) by treatment at 5-leaf stage, E. crus-galli var. oryzicola ([1]; 900 g/10 are): 100% | Inhibition (%) by treatment at 1-leaf stage, paddy rice ([2]; 75 g/10 are): 0% | Inhibition (%) by treatment at 5-leaf stage, paddy rice ([2]; 75 g/10 are): 0% | Inhibition (%) by treatment at 1-leaf stage, paddy rice ([2]; 150 g/10 are): 0% | Inhibition (%) by treatment at 5-leaf stage, paddy rice ([2]; 150 g/10 are): 0% | Inhibition (%) by treatment at 1-leaf stage, paddy rice ([2]; 300 g/10 are): 0% | Inhibition (%) by treatment at 5-leaf stage, paddy rice ([2]; 300 g/10 are): 0% | Inhibition (%) by treatment at 1-leaf stage, paddy rice ([2]; 600 g/10 are): 15% | Inhibition (%) by treatment at 5-leaf stage, paddy rice ([2]; 600 g/10 are): 0% | Inhibition (%) by treatment at 1-leaf stage, paddy rice ([2]; 900 g/10 are): 35% | Inhibition (%) by treatment at 5-leaf stage, paddy rice ([2]; 900 g/10 are): 12% | Inhibition (%) by treatment at 1-leaf stage of E. crus-galli var. oryzicola, E. crus-galli var. oryzicola ([3]; 100 g/10 are): 100% | Inhibition (%) by treatment at 5-leaf stage of E. crus-galli var. oryzicola, E. crus-galli var. oryzicola ([3]; 100 g/10 are): 48% | Inhibition (%) by treatment at 1-leaf stage of E. crus-galli var. oryzicola, E. crus-galli var. oryzicola ([3]; 300 g/10 are): 100% | Inhibition (%) by treatment at 5-leaf stage of E. crus-galli var. oryzicola, E. crus-galli var. oryzicola ([3]; 300 g/10 are): 72% | Inhibition (%) by treatment at 1-leaf stage of E. crus-galli var. oryzicola, E. crus-galli var. oryzicola ([3]; 900 g/10 are): 100% | Inhibition (%) by treatment at 5-leaf stage of E. crus-galli var. oryzicola, E. crus-galli var. oryzicola ([3]; 900 g/10 are): 98% | Inhibition (%) by treatment at 1-leaf stage of E. crus-galli var. oryzicola, paddy rice ([4]; 100 g/10 are): 0% | Inhibition (%) by treatment at 5-leaf stage of E. crus-galli var. oryzicola, paddy rice ([4]; 100 g/10 are): 0% | Inhibition (%) by treatment at 1-leaf stage of E. crus-galli var. oryzicola, paddy rice ([4]; 300 g/10 are): 0% | Inhibition (%) by treatment at 5-leaf stage of E. crus-galli var. oryzicola, paddy rice ([4]; 300 g/10 are): 0% | Inhibition (%) by treatment at 1-leaf stage of E. crus-galli var. oryzicola, paddy rice ([4]; 900 g/10 are): 23% | Inhibition (%) by treatment at 5-leaf stage of E. crus-galli var. oryzicola, paddy rice ([4]; 900 g/10 are): 5%
